Experimental findings from patent US20250249056A1, “CANCER THERAPIES COMPRISING A NUCLEAR EXPORT INHIBITOR AND AN ONCOLYTIC VIRUS” (priority 2022, published 2025) are described below.

For assay [1], the system named is MYXV. As to the kind of experiment: Viral replication assay: progeny virus titration on permissive rabbit RK13 cells. The format is cell-based, myxoma virus. Conditions: PANC-1, Colo205, and MDA-MB435; selinexor; 24, 48, 72 h. On the procedure: Viral titers in different human cancer cell lines were determined using a viral replication assay. Cells were seeded in 24-well plates (2×10^5 cells/well). The next day, the cells were treated with different concentrations of leptomycin B (LMB) or selinexor diluted in DMEM for 1 hour. MYXV was added to the cells and incubated for one hour at 37° C. After 1 hour, the unbound viruses were washed away using DMEM, and DMEM with LMB or selinexor was added to the cells. Cells were harvested in DMEM without LMB or selinexor at the indicated time points. After harvesting the cells, they were stored at −80° C. until processing. Samples were subjected to three freeze/thaw cycles and one-minute sonification to lyse cells and release the viral particles. Afterwards, different dilutions were prepared in DMEM and plated on rabbit RK13 and foci were counted after 48 hours using a fluorescent microscope. All assays and dilutions were performed in triplicate.

The subject of assay [2] is MYXV. As to the kind of experiment: MYXV infection of 3D spheroid cultures of human cancer cells (GFP/TdTomato fluorescence). The class given is cell-based, myxoma virus. An excerpt: In vitro three-dimensional (3D) cell culture allows cells to contact each other and form a platform representing in vivo tumor masses (Lv, D., et al., 2017, Oncology Letters, 14:6999-7010). As an initial test whether selinexor can enhance MYXV replication in tumor masses, a 3D cell culture using type 1 collagen was established. The semi-permissive and non-permissive human cancer cells PANC-1 (FIG. 6A), MDA-MB435 (FIG. 6C), HT29 (FIG. 6E), and Colo205 (FIG. 6G) were used to form 3D spheroids in 96 well plates. After several days of incubation, the cells formed spheroids.
After reaching a desirable size, spheroids were mock-treated or treated with different concentrations of selinexor (e.g., 0.1 μM, 1 μM) for one hour then infected with vMyx-GFP-TdTomato (1×10^7 FFU) in the presence of selinexor.
Spheroid Generation and Virus Infection: Different cancer cell lines were grown and maintained as previously described and used for spheroid generation within 2-5 passages. 96-well plates were prepared with rat tail collagen I to form the surface for spheroid culture. On the day of cell seeding for spheroid generation, the cells were dissociated with TrypLE, the TrypLE neutralized with fresh complete media, the cells spun down, and resuspended in fresh complete media. After making a single cell suspension, cells were counted using a Countess II automated cell counter and 1000 cells in 100 μL were plated on the surface of the collagen matrix. The cells were observed daily for spheroid formation. After 5-7 days, when spheroids reached the desired size, they were treated with selinexor and infected with vMyx-GFP-TdTomato.

The subject of the next assay is Colo205 cells. Nature of the assay: CyQUANT NF cell proliferation assay (Colo205). The class given is cell-based, human. Conditions: after 24 hours compared to mock treated cells, selinexor 0.1 or 1 μM, multiple MOI. On the procedure:
(§1) Cell Proliferation Assay: To measure cancer cell proliferation based on the amount of cellular DNA, the CyQuant™ NF Cell Proliferation Assay Kit (Invitrogen) was used according to the manufacturer's instructions. Briefly, PANC-1, HT29, MDA-MB435, and Colo205 cells were seeded in a 96-well plate (1×10^4 cells/well) and left to attach to the wells overnight. The next day, the medium was removed and replaced with 50 μL medium containing different concentrations of selinexor (0-1 μM). After an hour of incubation with selinexor, the virus was added to different MOIs (0.5-5), bringing the end volume of every well up to 100 μL. A 1× dye binding solution was prepared by adding 9 μL of the CyQuant™ NF Dye reagent in 4.5 mL Hank's Balanced Salt Solution (HBSS) buffer (Invitrogen). After 24, 48, 72, and 96 hours of incubation, the medium was removed from the cells and 50 μL 1× dye solution was added to all wells. The microplate was covered to protect it from light and was incubated for 30-60 minutes in a 5% CO2 incubator at 37° C. Subsequently, cell proliferation was quantified by measuring fluorescence with an excitation of 485 nm and emission of 530 nm in a VarioSkan Lux Microplate reader (Thermo Fisher). All experiments were performed in quadruple and normalized to mock-treated cells.

Assay [3] has as its system MYXV. Nature of the assay: MYXV reporter gene expression (GFP/TdTomato) and foci by fluorescence microscopy in human cancer cell lines.
For assay [4], the system named is PANC-1 cells. As to the kind of experiment: Click-iT EdU cell proliferation assay. The format is cell-based, human. Conditions: PANC-1 cells treated for 24 hours; selinexor or MYXV. On the procedure: Selinexor was previously reported to reduce the proliferation of cancer cells, however, viral infection also stops cell proliferation (Zheng, Y., et al., 2014, Cancer Chemotherapy and Pharmacology, 74:487-495; Johnston, J. B., et al., 2005, Journal of Virology, 79:10750-10763). As such, the effect of selinexor and MYXV on human cancer cells was examined alone and in combination. To this end, two cell proliferation assays were performed. In the first methods, DNA synthesis was measured by the incorporation of EdU (5-ethynyl-2′-deoxyuridine), a nucleoside analog of thymidine, into DNA during active DNA synthesis (FIG. 4A) (Chehrehasa F., et al., 2009, Journal of Neuroscience Methods, 177:122-130). Using this method in uninfected PANC-1 cells, EdU incorporation was detected in more than 50% of dividing cells (FIG. 4B and FIG. 4C). When cells were treated with selinexor or MYXV for 24 hours, on the other hand, a significant reduction in proliferation was observed (20% EdU-positive cells). […]
Click-iT EdU Cell Proliferation Assay: To visualize and measure cell proliferation, a Click-iT™ EdU cell proliferation assay (Thermo Fisher) was used according to the manufacturer's instructions. […] Fluorescence images were obtained using a fluorescence microscope and fluorescence signals were analyzed using ImageJ software.

The subject of assay [5] is PANC-1 cells. Nature of the assay: CyQUANT NF cell proliferation assay (PANC-1). The class given is cell-based, human. Conditions: after 24 hours compared to mock treated cells, selinexor 0.1 or 1 μM, multiple MOI. On the procedure:
as §1

Consider `O=C(/C=C\n1cnc(-c2cc(C(F)(F)F)cc(C(F)(F)F)c2)n1)NNc1cnccn1` [selinexor], for which the “increase in virus production compared to infection with MYXV alone” value in the assay with MYXV [1] was 10-100 fold. The “GFP (early/late) and TdTomato (late) expression in spheroids by fluorescence microscopy” value in the assay with MYXV [2] (PANC-1, MDA-MB435, HT29, Colo205 spheroids, selinexor 0.1 or 1 μM, vMyx-GFP-TdTomato 1×10^7 FFU) was “enhanced”. The “virus penetration into spheroids” value with MYXV [2] (selinexor plus MYXV compared to MYXV infection alone) is reported as “greater penetration into the spheroid interior”. Further, in the assay with MYXV [2] (selinexor-treated vs untreated infected spheroids, 72-96 h post-infection), the “quantification of GFP fluorescence in spheroids” value is recorded as “significant increase in the level of GFP expression”. In addition, the “cell proliferation (DNA content)” value with Colo205 cells and in the assay with PANC-1 cells [5] was “significant reductions in cell proliferation” in each case. For the same compound, in the assay with MYXV [3] (PANC-1, Colo205, MDA-MB435, HCT116, selinexor 0.1-10 μM pre-treatment 1 h, vMyx-GFP-TdTomato MOI 5, 48 h post-infection), the “GFP and TdTomato reporter protein expression” value was “Enhanced GFP and TdTomato reporter protein expression”. In the assay with MYXV [3] (infected at low MOI, selinexor treatment), the “foci formation in restricted human cancer cell lines” value is recorded as “formation of small foci”. Besides, the “cell death caused by selinexor alone” value in the assay with MYXV [3] (selinexor 10 μM or higher, all cancer cell lines tested) is on record as “enhanced cell death”. Besides, the EdU-positive cells in the assay with PANC-1 cells [4] was found to be 20%.
